Experimental data taken from US20170094996A1, “PROCESS FOR REBAUDIOSIDE D” (EPC (BEIJING) NATURAL PRODUCTS CO., LTD., priority 2009, published 2017).

Columns and labels:
[1] = Sensorical analysis of 3 samples steviol-glycosides, trained panel of 6 test persons; format: in vivo, human; conditions: 200 ppm solutions in water, 100 ml, blinded
Description: Trained panel of 6 test persons.
Samples were prepared as 200 ppm solutions in water (same temperature).
Each test person received 3 equal glasses with 100 ml of prepared sample. The glasses were denoted with random 3-digit numbers.
The question asked was: “Can you taste a difference between the samples and if so please describe the difference in plain text”.
After the tasting period, the panel exchanged the individual opinions and came to following conclusion (the nature of sample was kept hidden until the conclusion was reached): […]

[2] = compared with stevioside; Phytochemistry 68, 2007, 1855-1863; cited from earlier work

SMILES: C=C1C[C@@]23CC[C@H]4[C@@](C)(CCC[C@@]4(C)C(=O)O[C@@H]4O[C@H](CO)[C@@H](O)[C@H](O)[C@H]4O)[C@@H]2CC[C@]1(O[C@@H]1O[C@H](CO)[C@@H](O)[C@H](O[C@@H]2O[C@H](CO)[C@@H](O)[C@H](O)[C@H]2O)[C@H]1O[C@@H]1O[C@H](CO)[C@@H](O)[C@H](O)[C@H]1O)C3 [Rebaudioside A]
- bitter after taste (panel conclusion) [1]: slight bitter after taste
- sweetness compared with the other samples (panel conclusion) [1]: slightly less sweet than the 2 other samples
- taste quality [2]: better than stevioside
